Measured values taken from ChEMBL document CHEMBL4428094, “Insights into the structure-activity relationship of the anticancer compound ZJ-101, a derivative of marine natural product superstolide A: A role played by the lactone moiety” (Bioorg Med Chem Lett, 2016).

What was measured:
Assay type in all cases: functional, cell-based
[1] = test system: HeLa; test: Antiproliferative activity against human HeLa cells assessed as reduction in cell viability by Alamar blue assay
[2] = test system: HCT-116; test: Antiproliferative activity against human HCT116 cells assessed as reduction in cell viability by Alamar blue assay
[3] = test system: SF-295; test: Antiproliferative activity against human SF295 cells assessed as reduction in cell viability by Alamar blue assay
[4] = test system: MCF7; test: Antiproliferative activity against human MCF7 cells assessed as reduction in cell viability by Alamar blue assay
[5] = test system: MDA-MB-231; test: Antiproliferative activity against human MDA-MB-231 cells assessed as reduction in cell viability by Alamar blue assay

Row | IC50 [4] [nM] | IC50 [5] [nM] | SMILES | IC50 [1] [nM] | IC50 [2] [nM] | IC50 [3] [nM]
1 | – | – | CC(=O)N[C@H](C)[C@@H](O)[C@@H](C)[C@@H]1OC(=O)/C=C/C=C(C)\C=C\[C@]2(C)CCC=C[C@@H]2/C=C(C)/C=C/[C@H]1C | 75.4 | 94 | 63.5
2 | 448 | 584 | CC(=O)N[C@H](C)[C@@H](O)[C@@H](C)[C@@H]1NC(=O)/C=C/C=C(C)\C=C\[C@]2(C)CCC=C[C@@H]2/C=C(C)/C=C/[C@H]1C | 597 | 746 | 716
